We go through 52 compounds from patent publication US9963462B2 (priority 2015, dated 2018).

The test system of the assay is BH4 levels in SK-N-BE (2) cells. The assay can be described thus: SKN-N-BE (2) cellular assay, BH4 levels by LC-MS. It is filed as cell-based. As to conditions: Homo sapiens, SKNBE2, read-out: SK-N-BE(2) IC50, SK-N-BE (2) cells, BH4 levels by LC-MS.
What is called IC50 is the concentration that inhibits the measured activity by half. Turning to `Cc1c(C(=O)N2C3CCC2CN(c2ccccn2)C3)cnn1-c1nn2cccc2c(=O)[nH]1` [Q-0882], the IC50 was found to be 200 nM.
The same measure for `Cc1c(C(=O)N2CCC(C#N)CC2)cnn1-c1nn2cccc2c(=O)[nH]1` [Q-0883]: 1300 nM.
`CCN1CC2CCC(C1)N2C(=O)c1cnn(-c2nn3cccc3c(=O)[nH]2)c1C` [Q-0884]: the IC50 was determined as 200 nM.
The same measure for `Cc1c(C(=O)N2CCN(C(=O)OC(C)(C)C)CC2C)cnn1-c1nn2cccc2c(=O)[nH]1` (stereo not shown) [Q-0885]: 400 nM.
The value for `Cc1c(C(=O)N2CCC(N3CCCC3)CC2)cnn1-c1nn2cccc2c(=O)[nH]1` [Q-0886] was 5400 nM; that for `Cc1c(C(=O)N2CCC(OCc3ccc(F)cc3)CC2)cnn1-c1nn2cccc2c(=O)[nH]1` [Q-0893] was 300 nM.
The value for `Cc1c(C(=O)N2C3CCC2CN(c2ccc(Cl)cc2)C3)cnn1-c1nn2cccc2c(=O)[nH]1` [Q-0894] was 100 nM; that for `Cc1c(C(=O)N2CCN(CCC#N)CC2)cnn1-c1nn2cccc2c(=O)[nH]1` [Q-0895] was 1400 nM; that for `Cc1c(C(=O)N2CC[C@@H]3CN(C(=O)OC(C)(C)C)C[C@@H]32)cnn1-c1nn2cccc2c(=O)[nH]1` [Q-0897] was 500 nM.
Take `Cc1c(C(=O)N2CCC23CC(F)(F)C3)cnn1-c1nn2cccc2c(=O)[nH]1` [Q-0900]: the IC50 turned out to be 2300 nM.
The value for `Cc1c(C(=O)N2CCN(CCS(C)(=O)=O)CC2)cnn1-c1nn2cccc2c(=O)[nH]1` [Q-0901] was 10000 nM.
For `Cc1c(C(=O)N2CC3CC(C(F)(F)F)CC3C2)cnn1-c1nn2cccc2c(=O)[nH]1` (stereo not shown) [Q-0902], the IC50 is 100 nM.
The value for `Cc1c(C(=O)N2CCC3(CC2)CC3c2nnc(-c3cccc(F)c3)o2)cnn1-c1nn2cccc2c(=O)[nH]1` (stereo not shown) [Q-0905] was 600 nM; that for `Cc1c(C(=O)N2CCN(c3nccs3)CC2)cnn1-c1nn2cccc2c(=O)[nH]1` [Q-0907] was 400 nM; that for `Cc1c(C(=O)N2CCC3(CC2)OCc2ccccc23)cnn1-c1nn2cccc2c(=O)[nH]1` [Q-0909] was 100 nM.
The same measure for `Cc1c(C(=O)N2CCCC3C2CCCN3C(=O)OC(C)(C)C)cnn1-c1nn2cccc2c(=O)[nH]1` (stereo not shown) [Q-0912]: 900 nM; for `Cc1c(C(=O)N2CCC3CN(C(=O)OC(C)(C)C)CC32)cnn1-c1nn2cccc2c(=O)[nH]1` (stereo not shown) [Q-0914]: 600 nM; for `Cc1c(C(=O)N2CCN(C(=O)OC(C)(C)C)CC2(C)C)cnn1-c1nn2cccc2c(=O)[nH]1` [Q-0916]: 700 nM.
The same measure for `Cc1c(C(=O)N2CCC(n3cncn3)CC2)cnn1-c1nn2cccc2c(=O)[nH]1` [Q-0919]: 1700 nM; for `Cc1c(C(=O)N2CCCCC2C(F)(F)F)cnn1-c1nn2cccc2c(=O)[nH]1` (stereo not shown) [Q-0920]: 500 nM; for `Cc1c(C(=O)N2CCC3(CCOC3)C2)cnn1-c1nn2cccc2c(=O)[nH]1` (stereo not shown) [Q-0922]: 1000 nM.
In the case of `Cc1c(C(=O)N2CCCC(C)(C#N)C2)cnn1-c1nn2cccc2c(=O)[nH]1` (stereo not shown) [Q-0923], the half-maximal inhibitory concentration (IC50) turned out to be 1300 nM.
Turning to `CCN(C)C1CCN(C(=O)c2cnn(-c3nn4cccc4c(=O)[nH]3)c2C)CC1` [Q-0925], the IC50 was 500 nM.
The same measure for `Cc1c(C(=O)N2CC3(CCN(C(=O)OC(C)(C)C)CC3)C2)cnn1-c1nc2c(c(=O)[nH]1)CCC2` [Q-0928]: 200 nM; for `Cc1c(C(=O)N2CC[C@H]3CN(C(=O)OC(C)(C)C)[C@H]3C2)cnn1-c1nn2cccc2c(=O)[nH]1` [Q-0929]: 2000 nM; for `Cc1c(C(=O)N2CC3(CCCC3)C2)cnn1-c1nc2c(c(=O)[nH]1)CCC2` [Q-0931]: 200 nM.
The value for `Cc1c(C(=O)N2CCC3(CC2)CC3c2noc(-c3cccnc3)n2)cnn1-c1nn2cccc2c(=O)[nH]1` (stereo not shown) [Q-0932] was 700 nM; that for `Cc1c(C(=O)N2CCN(C3CC4CCC3C4)CC2)cnn1-c1nn2cccc2c(=O)[nH]1` (stereo not shown) [Q-0933] was 200 nM.
As to `Cc1c(C(=O)N2CC3CCCC(C3)C2)cnn1-c1nn2cccc2c(=O)[nH]1` [Q-0934], the IC50 is 300 nM.
Take `Cc1c(C(=O)N2CCC(N3CCCC3=O)CC2)cnn1-c1nn2cccc2c(=O)[nH]1` [Q-0935]: the IC50 turned out to be 1600 nM.
The same measure for `Cc1c(C(=O)N2CCN(c3nc4ccccc4s3)CC2)cnn1-c1nn2cccc2c(=O)[nH]1` [Q-0936]: 200 nM; for `COC1(C2CC2)CCN(C(=O)c2cnn(-c3nn4cccc4c(=O)[nH]3)c2C)CC1` [Q-0938]: 100 nM; for `Cc1c(C(=O)N2CCC(c3nc(-c4ccccc4)cs3)CC2)cnn1-c1nn2cccc2c(=O)[nH]1` [Q-0939]: 83 nM.
The value for `Cc1c(C(=O)N2CC(Cc3ccc(C(F)(F)F)cc3)C2)cnn1-c1nn2cccc2c(=O)[nH]1` [Q-0940] was 800 nM; that for `Cc1c(C(=O)N2CCC(n3ccnc3)CC2)cnn1-c1nn2cccc2c(=O)[nH]1` [Q-0942] was 9100 nM.
The value for `Cc1c(C(=O)N2CC3(CN(CC(F)F)C3)C2)cnn1-c1nn2cccc2c(=O)[nH]1` [Q-0945] was 1000 nM.
Turning to `Cc1c(C(=O)N2CC3CC(C)N(C(=O)C(C)(C)C)C3C2)cnn1-c1nn2cccc2c(=O)[nH]1` (stereo not shown) [Q-0946], the IC50 is 1100 nM.
The value for `Cc1c(C(=O)N2CC(CC(F)(F)F)C2)cnn1-c1nn2cccc2c(=O)[nH]1` [Q-0947] was 1000 nM.
As to `Cc1c(C(=O)N2CCN(CC(F)(F)F)CC2(C)C)cnn1-c1nn2cccc2c(=O)[nH]1` [Q-0949, 2-(4-(2,2-dimethyl-4-(2,2,2-trifluoroethyl)piperazine-1-carbonyl)-5-methyl-1H-pyrazol-1-yl)pyrrolo[1,2-f][1,2,4]triazin-4(3H)-one], the IC50 worked out at 200 nM.
The same measure for `Cc1c(C(=O)N2CCC(N3CCOCC3)C2)cnn1-c1nn2cccc2c(=O)[nH]1` (stereo not shown) [Q-0950]: 6200 nM.
The same measure for `Cc1c(C(=O)N2CCC3CCC(=O)N(C4CC4)C3C2)cnn1-c1nn2cccc2c(=O)[nH]1` (stereo not shown) [Q-0954]: 9000 nM.
The same measure for `Cc1c(C(=O)N2CCCC(c3n[nH]c(C4CC4)n3)C2)cnn1-c1nn2cccc2c(=O)[nH]1` (stereo not shown) [Q-0955]: 10000 nM; for `COCC1(C#N)CCN(C(=O)c2cnn(-c3nn4cccc4c(=O)[nH]3)c2C)CC1` [Q-0957]: 1000 nM.
`Cc1c(C(=O)N2CCC(c3nncn3C3CC3)CC2)cnn1-c1nn2cccc2c(=O)[nH]1` [Q-0958]: the IC50 was 10000 nM.
The same measure for `Cc1c(C(=O)N2CCC(C(F)(F)F)C2(C)C)cnn1-c1nn2cccc2c(=O)[nH]1` (stereo not shown) [Q-0959]: 1000 nM; for `Cc1c(C(=O)N2CCC(C(F)(F)F)C3(CCC3)C2)cnn1-c1nn2cccc2c(=O)[nH]1` (stereo not shown) [Q-0960]: 200 nM; for `Cc1c(C(=O)N2C[C@@H]3[C@@H](CF)[C@@H]3C2)cnn1-c1nn2cccc2c(=O)[nH]1` [Q-0961]: 700 nM.
The value for `Cc1c(C(=O)N2CCC(F)(c3ccccn3)CC2)cnn1-c1nn2cccc2c(=O)[nH]1` [Q-0962] was 300 nM; that for `Cc1c(C(=O)N2CCN(C(C#N)c3ccc(F)cc3)CC2)cnn1-c1nn2cccc2c(=O)[nH]1` (stereo not shown) [Q-0963] was 4000 nM; that for `Cc1c(C(=O)N2CCN(C(C#N)c3cccs3)CC2)cnn1-c1nn2cccc2c(=O)[nH]1` (stereo not shown) [Q-0964] was 8900 nM.
In the case of `Cc1c(C(=O)N2CC3CCC2c2ccccc23)cnn1-c1nn2cccc2c(=O)[nH]1` (stereo not shown) [Q-0965], the IC50 was 100 nM.
As to `Cc1c(C(=O)N2CCC(CC(F)(F)F)C2)cnn1-c1nn2cccc2c(=O)[nH]1` (stereo not shown) [Q-0966], the IC50 is 1300 nM.
